{
  "source": "PubChem BioAssay AID180",
  "about": "(DTP/NCI, 2004)",
  "system": "BDF1 mice, Adenocarcinoma 755 s.c., tumor weight T/C",
  "experiment": "NCI In Vivo Anticancer Drug Screen. Data for tumor model Adenocarcinoma 755 (subcutaneous) in B6D2F1 (BDF1) mice",
  "conditions": "endpoint: mean tumor weight, higher = larger tumour",
  "outline": "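Values express treated (T) relative to vehicle-dosed control (C) animals, based on survival or tumour size measured after compound treatment of mice bearing a transplanted tumour.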",
  "note": "“And” between values parts separate entries of the source, which are not always exact repeats. Equal values may be shown once.",
  "data": [
    {"smiles": "C[C@]12C=CC(=O)C=C1CC[C@H]1[C@@H]3C[C@@H](O)[C@](O)(C(=O)CO)[C@@]3(C)C[C@H](O)[C@@]12F", "values": [
      {"measurement": "T/C", "setting": "dose: 1.5 mg/kg/injection, schedule: Q01DX011 (sc), vehicle: steriod suspending solution", "result": "98 % of control"},
      {"measurement": "T/C", "setting": "dose: 3.0 mg/kg/injection, schedule: Q01DX011 (sc), vehicle: steriod suspending solution", "result": "79 % of control"},
      {"measurement": "T/C", "setting": "dose: 3.12 mg/kg/injection, schedule: Q01DX011 (sc), vehicle: steriod suspending solution", "result": "77 % of control"},
      {"measurement": "T/C", "setting": "dose: 6.0 mg/kg/injection, schedule: Q01DX011 (sc), vehicle: steriod suspending solution", "result": "41 % of control"},
      {"measurement": "T/C", "setting": "dose: 12.5 mg/kg/injection, schedule: Q01DX011 (sc), vehicle: steriod suspending solution", "result": "32 % of control and 44 % of control and 53 % of control"}
    ]},
    {"smiles": "CC(=O)CSc1nc(N)nc2nc[nH]c12", "values": [
      {"measurement": "T/C", "setting": "dose: 3.9 mg/kg/injection, schedule: Q01DX011 (ip), vehicle: methylcellulose (MC)", "result": "32 % of control"},
      {"measurement": "T/C", "setting": "dose: 7.8 mg/kg/injection, schedule: Q01DX011 (ip), vehicle: methylcellulose (MC)", "result": "6 % of control"},
      {"measurement": "T/C", "setting": "dose: 15.6 mg/kg/injection, schedule: Q01DX011 (ip), vehicle: methylcellulose (MC)", "result": "7 % of control"}
    ]},
    {"smiles": "CN(C)[C@@H]1C(=O)C(C(=O)NCNc2nc3n[nH]nc3c(=O)[nH]2)=C(O)[C@@]2(O)C(=O)C3=C(O)c4c(O)cccc4[C@@](C)(O)[C@H]3C[C@@H]12", "values": [
      {"measurement": "T/C", "setting": "dose: 25.0 mg/kg/injection, schedule: Q01DX011 (ip), vehicle: saline", "result": "89 % of control"},
      {"measurement": "T/C", "setting": "dose: 50.0 mg/kg/injection, schedule: Q01DX011 (ip), vehicle: saline", "result": "93 % of control"},
      {"measurement": "T/C", "setting": "dose: 100.0 mg/kg/injection, schedule: Q01DX011 (ip), vehicle: saline", "result": "79 % of control"},
      {"measurement": "T/C", "setting": "dose: 200.0 mg/kg/injection, schedule: Q01DX011 (ip), vehicle: saline", "result": "40 % of control"}
    ]},
    {"smiles": "O=Cc1ccccc1", "values": [
      {"measurement": "T/C", "setting": "dose: 3.12 mg/kg/injection, schedule: Q01DX011 (ip), vehicle: Klucel (hydroxypropylcellulose) (HPC)", "result": "80 % of control"},
      {"measurement": "T/C", "setting": "dose: 6.25 mg/kg/injection, schedule: Q01DX011 (ip), vehicle: Klucel (hydroxypropylcellulose) (HPC)", "result": "52 % of control"},
      {"measurement": "T/C", "setting": "dose: 12.5 mg/kg/injection, schedule: Q01DX011 (ip), vehicle: Klucel (hydroxypropylcellulose) (HPC)", "result": "72 % of control"},
      {"measurement": "T/C", "setting": "dose: 25.0 mg/kg/injection, schedule: Q01DX011 (ip), vehicle: Klucel (hydroxypropylcellulose) (HPC)", "result": "109 % of control"},
      {"measurement": "T/C", "setting": "dose: 50.0 mg/kg/injection, schedule: Q01DX011 (ip), vehicle: Klucel (hydroxypropylcellulose) (HPC)", "result": "106 % of control"},
      {"measurement": "T/C", "setting": "dose: 100.0 mg/kg/injection, schedule: Q01DX011 (ip), vehicle: Klucel (hydroxypropylcellulose) (HPC)", "result": "80 % of control"},
      {"measurement": "T/C", "setting": "dose: 200.0 mg/kg/injection, schedule: Q01DX011 (ip), vehicle: Klucel (hydroxypropylcellulose) (HPC)", "result": "55 % of control"},
      {"measurement": "T/C", "setting": "dose: 400.0 mg/kg/injection, schedule: Q01DX011 (ip), vehicle: Klucel (hydroxypropylcellulose) (HPC)", "result": "56 % of control"}
    ]},
    {"smiles": "SCc1ccccn1", "values": [
      {"measurement": "T/C", "setting": "dose: 37.8 mg/kg/injection, schedule: Q01DX011 (ip), vehicle: carboxymethylcellulose (CMC)", "result": "109 % of control"},
      {"measurement": "T/C", "setting": "dose: 300.0 mg/kg/injection, schedule: Q01DX011 (ip), vehicle: carboxymethylcellulose (CMC)", "result": "97 % of control"}
    ]},
    {"smiles": "COc1cccc2c1cc([N+](=O)[O-])c1c(C(=O)O)cc3c(c12)OCO3", "values": [
      {"measurement": "T/C", "setting": "dose: 50.0 mg/kg/injection, schedule: Q01DX011 (ip), vehicle: other", "result": "59 % of control"},
      {"measurement": "T/C", "setting": "dose: 100.0 mg/kg/injection, schedule: Q01DX011 (ip), vehicle: other", "result": "43 % of control"}
    ]}
  ]
}
